Data published in ChEMBL document CHEMBL1201862, “PubChem BioAssay data set” (2004).
Counter-ions that a name gives are not always drawn. Activity calls are given as the source filed them.

Experiments:
[1] = target: CAAX prenyl protease 1 (Saccharomyces cerevisiae S288c, UniProt P47154); experiment: Ste24 protease inhibitors, dose response, biochemical, S. cerevisiae, plate reader, cherry-pick (AID 488815)
[2] = target: T1, CAAX prenyl protease 2 (Saccharomyces cerevisiae S288c, UniProt Q03530); assay type: biochemical
T1 sequence (Q03530 whole entry): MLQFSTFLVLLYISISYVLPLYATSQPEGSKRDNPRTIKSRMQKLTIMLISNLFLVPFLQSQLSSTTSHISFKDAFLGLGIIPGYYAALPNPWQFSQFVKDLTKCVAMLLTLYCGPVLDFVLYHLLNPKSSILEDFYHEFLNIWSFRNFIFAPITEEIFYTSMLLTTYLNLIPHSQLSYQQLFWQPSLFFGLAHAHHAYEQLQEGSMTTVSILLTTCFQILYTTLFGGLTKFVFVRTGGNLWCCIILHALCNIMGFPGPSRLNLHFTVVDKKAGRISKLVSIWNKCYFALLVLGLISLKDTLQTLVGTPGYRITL

[3] = target: T2, Cannabinoid receptor 1 (Homo sapiens, UniProt P21554); experiment: SAR analysis of agonists of the Cannabinoid Receptor 1 using an Image-Based Assay - Set 4. [Related pubchem assays (depositor defined):AID2013, AID2026]; assay type: functional
[4] = target: T3, Cannabinoid receptor 2 (Homo sapiens, UniProt P34972); experiment: SAR analysis of agonists of the Cannabinoid Receptor 2 using an Image-Based Assay - Set 3. [Related pubchem assays (depositor defined):AID2013, AID2026]; assay type: functional
[5] = target: T2, Cannabinoid receptor 1; experiment: SAR analysis of antagonists of the Cannabinoid Receptor 1 using an Image-Based Assay - Set 4. [Related pubchem assays (depositor defined):AID2013, AID2026]; assay type: functional
[6] = target: G-protein coupled receptor 55 (Homo sapiens, UniProt Q9Y2T6); experiment: SAR Analysis of Selective Antagonists of GPR55 using an Image-Based Assay - Set 4. [Related pubchem assays (depositor defined):AID2013, AID2026]; assay type: functional;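 also: antagonism of response to 5 µM lysophosphatidylinositol agonist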
[7] = target: T4, G-protein coupled receptor 35 (Homo sapiens, UniProt Q9HC97); experiment: SAR analysis of Antagonists of the GPR35 Receptor using an Image-Based Assay - Set 6. [Related pubchem assays (depositor defined):AID2013, AID2026]; assay type: functional
[8] = target: T4, G-protein coupled receptor 35; experiment: SAR analysis of Agonists of the GPR35 Receptor using an Image-Based Assay - Set 4. [Related pubchem assays (depositor defined):AID2013, AID2026]; assay type: functional
[9] = target: T3, Cannabinoid receptor 2; experiment: SAR analysis of antagonists of the Cannabinoid Receptor 2 using an Image-Based Assay - Set 3. [Related pubchem assays (depositor defined):AID2013, AID2026]; assay type: functional
[10] = target: T5, Hexokinase HKDC1 (Homo sapiens, UniProt Q2TB90); experiment: HKDC1 hexokinase activators, dose response, biochemical, W721R variant (AID 504730); assay type: functional
T5 sequence (Q2TB90 whole entry): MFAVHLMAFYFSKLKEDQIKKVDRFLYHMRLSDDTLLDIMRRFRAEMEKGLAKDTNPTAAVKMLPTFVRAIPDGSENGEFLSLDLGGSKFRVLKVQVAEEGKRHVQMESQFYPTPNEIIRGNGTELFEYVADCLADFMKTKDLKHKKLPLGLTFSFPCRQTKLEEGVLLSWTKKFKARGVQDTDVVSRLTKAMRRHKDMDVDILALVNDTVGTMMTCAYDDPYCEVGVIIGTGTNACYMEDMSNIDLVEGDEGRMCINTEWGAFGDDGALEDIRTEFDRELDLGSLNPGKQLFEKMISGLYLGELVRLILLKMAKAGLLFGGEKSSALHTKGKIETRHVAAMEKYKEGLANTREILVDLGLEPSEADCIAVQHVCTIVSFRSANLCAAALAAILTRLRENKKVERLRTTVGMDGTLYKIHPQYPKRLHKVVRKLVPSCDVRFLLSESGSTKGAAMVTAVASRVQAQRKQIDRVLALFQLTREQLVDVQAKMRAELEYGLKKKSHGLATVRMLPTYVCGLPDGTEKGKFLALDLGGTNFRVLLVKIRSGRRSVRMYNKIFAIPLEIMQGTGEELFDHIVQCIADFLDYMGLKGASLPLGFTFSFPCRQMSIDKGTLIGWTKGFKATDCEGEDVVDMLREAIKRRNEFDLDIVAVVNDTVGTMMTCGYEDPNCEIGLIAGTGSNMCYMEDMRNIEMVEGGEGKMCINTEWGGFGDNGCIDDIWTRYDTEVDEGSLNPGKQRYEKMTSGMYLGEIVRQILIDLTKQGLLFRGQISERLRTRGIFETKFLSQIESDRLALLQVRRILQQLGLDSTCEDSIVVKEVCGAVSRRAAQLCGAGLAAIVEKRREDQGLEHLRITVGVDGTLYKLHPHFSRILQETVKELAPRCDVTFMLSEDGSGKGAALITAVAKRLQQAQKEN

[11] = target: T6, Hexokinase-1 (Homo sapiens, UniProt P19367); experiment: hexokinase 1 activators, dose response, selectivity assay for HKDC1 activator project, biochemical (AID 504762); assay type: functional
T6 sequence (P19367 whole entry): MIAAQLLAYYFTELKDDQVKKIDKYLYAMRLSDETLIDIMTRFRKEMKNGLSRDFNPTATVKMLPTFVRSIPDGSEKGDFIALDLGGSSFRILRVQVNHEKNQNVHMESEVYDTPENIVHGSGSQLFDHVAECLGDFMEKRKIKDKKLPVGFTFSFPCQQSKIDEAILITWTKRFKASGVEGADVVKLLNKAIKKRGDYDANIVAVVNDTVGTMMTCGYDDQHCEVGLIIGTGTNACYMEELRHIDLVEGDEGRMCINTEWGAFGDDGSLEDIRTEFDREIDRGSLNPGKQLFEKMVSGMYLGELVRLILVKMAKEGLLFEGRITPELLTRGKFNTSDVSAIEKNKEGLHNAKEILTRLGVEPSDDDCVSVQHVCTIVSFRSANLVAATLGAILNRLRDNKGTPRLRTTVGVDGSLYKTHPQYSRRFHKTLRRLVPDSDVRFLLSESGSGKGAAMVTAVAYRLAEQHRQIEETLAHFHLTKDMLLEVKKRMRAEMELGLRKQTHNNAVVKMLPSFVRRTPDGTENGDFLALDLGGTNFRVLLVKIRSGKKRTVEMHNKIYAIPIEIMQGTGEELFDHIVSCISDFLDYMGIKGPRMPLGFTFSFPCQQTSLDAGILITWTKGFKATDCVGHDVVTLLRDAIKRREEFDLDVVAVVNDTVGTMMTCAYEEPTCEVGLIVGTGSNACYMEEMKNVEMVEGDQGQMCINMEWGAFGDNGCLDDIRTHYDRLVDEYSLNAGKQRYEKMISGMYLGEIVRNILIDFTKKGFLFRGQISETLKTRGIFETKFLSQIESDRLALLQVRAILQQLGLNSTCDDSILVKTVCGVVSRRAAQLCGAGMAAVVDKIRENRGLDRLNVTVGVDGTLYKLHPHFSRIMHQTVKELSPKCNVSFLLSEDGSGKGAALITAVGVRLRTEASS

[12] = target: Voltage-gated inwardly rectifying potassium channel KCNH2 (Homo sapiens, UniProt Q12809); conditions: Potency;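 also: confirmatory quantitative high-throughput screen measuring inhibition of hERG channel activity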
[13] = target: Runt-related transcription factor 1/Core-binding factor subunit beta (Homo sapiens, UniProt Q01196+Q13951); experiment: Confirmation of compounds inhibiting the binding between the RUNX1 Runt domain and CBFb-SMMHC via a fluorescence resonance energy transfer (FRET) assay. [Related pubchem assays (depositor defined):AID1434, AID1438, AID1496, AID1550, AID1645]; assay type: protein assay
[14] = target: Cytochrome P450 2C19 (Homo sapiens, UniProt P33261); experiment: Cytochrome panel assay with activity outcomes. Panel member name: p450-cyp2c19 Compounds with AC50 equal or less than 10 uM are considered active; assay type: functional; conditions: read-out: AC50
[15] = target: Cytochrome P450 2C9 (Homo sapiens, UniProt P11712)
[16] = target: T7, Cytochrome P450 1A2 (Homo sapiens, UniProt P05177);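 also: PubChem cytochrome P450 panel assay, CYP1A2 panel member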
T7 sequence (P05177 whole entry): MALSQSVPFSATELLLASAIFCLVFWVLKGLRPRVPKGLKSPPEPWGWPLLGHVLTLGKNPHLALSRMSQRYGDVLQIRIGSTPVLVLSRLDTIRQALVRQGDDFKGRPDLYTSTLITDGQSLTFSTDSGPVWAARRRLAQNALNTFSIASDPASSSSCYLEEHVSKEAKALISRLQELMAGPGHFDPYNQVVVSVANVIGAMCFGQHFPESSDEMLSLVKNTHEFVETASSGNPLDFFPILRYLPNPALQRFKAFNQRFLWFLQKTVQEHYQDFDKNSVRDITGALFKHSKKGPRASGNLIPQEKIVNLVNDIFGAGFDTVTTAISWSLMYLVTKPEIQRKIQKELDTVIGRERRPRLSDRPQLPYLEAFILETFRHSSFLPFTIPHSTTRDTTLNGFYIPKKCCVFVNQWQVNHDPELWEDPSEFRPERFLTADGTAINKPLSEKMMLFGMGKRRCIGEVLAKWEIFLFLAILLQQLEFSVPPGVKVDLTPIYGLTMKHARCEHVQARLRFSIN

[17] = target: Cytochrome P450 3A4 (Homo sapiens, UniProt P08684);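 also: CYP3A4 tested as one member of a cytochrome P450 panel screen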
[18] = target: T8, Delta-type opioid receptor (Homo sapiens, UniProt P41143); experiment: SAR Analysis of Agonists of the DOR Receptor using an Image-Based Assay - Set 2. [Related pubchem assays (depositor defined):AID1777, AID1785, AID1786, AID1966, AID2133, AID2136, AID2284, AID2285, AID2370]; assay type: functional
[19] = target: T9, Mu-type opioid receptor (Homo sapiens, UniProt P35372); experiment: SAR Analysis of Antagonists of the MOR Receptor using an Image-Based Assay - Set 2. [Related pubchem assays (depositor defined):AID1777, AID1785, AID1786, AID1966, AID2133, AID2136, AID2284, AID2285, AID2420]; assay type: functional
[20] = target: T10, Kappa-type opioid receptor (Homo sapiens, UniProt P41145); experiment: SAR analysis of Antagonists of the Kappa Opioid Receptor (KOR) using an Image-Based Assay - Set 2. [Related pubchem assays (depositor defined):AID1777, AID1785, AID1786, AID1966, AID2133, AID2136, AID2284, AID2285, AID2348]; assay type: functional
[21] = target: T10, Kappa-type opioid receptor; experiment: SAR analysis of small molecule agonists of the kappa opioid receptor via a luminescent beta-arrestin assay - Set 2. [Related pubchem assays (depositor defined):AID1777, AID1785, AID1786, AID1966, AID2133, AID2136, AID2284, AID449737]; assay type: functional
[22] = target: T8, Delta-type opioid receptor; experiment: SAR Analysis of Antagonists of the DOR Receptor using an Image-Based Assay - Set 2. [Related pubchem assays (depositor defined):AID1777, AID1785, AID1786, AID1966, AID2133, AID2136, AID2284, AID2285, AID2357]; assay type: functional
[23] = target: T10, Kappa-type opioid receptor; experiment: SAR analysis of Agonists of the Kappa Opioid Receptor (KOR) using an Image-Based Assay - Set 2. [Related pubchem assays (depositor defined):AID1777, AID1786, AID1966, AID2133, AID2136, AID2284, AID2285, AID2359]; assay type: functional
[24] = target: T9, Mu-type opioid receptor; experiment: SAR Analysis of Agonists of the MOR Receptor using an Image-Based Assay - Set 2. [Related pubchem assays (depositor defined):AID1777, AID1785, AID1786, AID1966, AID2133, AID2136, AID2284, AID2285, AID2352]; assay type: functional

T10 sequence (P41145 whole entry): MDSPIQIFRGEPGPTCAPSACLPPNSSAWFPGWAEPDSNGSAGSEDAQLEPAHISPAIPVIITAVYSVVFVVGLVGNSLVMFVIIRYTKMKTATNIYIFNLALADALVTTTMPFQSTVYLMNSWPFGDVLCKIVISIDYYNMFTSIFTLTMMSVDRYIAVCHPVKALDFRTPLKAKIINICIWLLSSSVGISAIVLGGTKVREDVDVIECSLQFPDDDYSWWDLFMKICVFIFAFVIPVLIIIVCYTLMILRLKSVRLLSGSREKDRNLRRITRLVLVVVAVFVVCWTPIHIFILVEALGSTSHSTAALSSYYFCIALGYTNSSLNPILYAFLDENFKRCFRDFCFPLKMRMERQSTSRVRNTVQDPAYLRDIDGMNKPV
T4 sequence (Q9HC97 whole entry): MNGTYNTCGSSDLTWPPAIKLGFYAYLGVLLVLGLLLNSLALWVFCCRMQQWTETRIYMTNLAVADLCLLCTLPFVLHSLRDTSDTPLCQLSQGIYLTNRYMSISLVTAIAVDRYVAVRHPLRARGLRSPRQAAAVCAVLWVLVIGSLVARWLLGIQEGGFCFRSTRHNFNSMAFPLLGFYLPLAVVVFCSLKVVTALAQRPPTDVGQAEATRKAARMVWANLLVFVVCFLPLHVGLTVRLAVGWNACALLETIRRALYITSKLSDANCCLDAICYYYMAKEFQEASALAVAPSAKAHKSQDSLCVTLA
T2 sequence (P21554 whole entry): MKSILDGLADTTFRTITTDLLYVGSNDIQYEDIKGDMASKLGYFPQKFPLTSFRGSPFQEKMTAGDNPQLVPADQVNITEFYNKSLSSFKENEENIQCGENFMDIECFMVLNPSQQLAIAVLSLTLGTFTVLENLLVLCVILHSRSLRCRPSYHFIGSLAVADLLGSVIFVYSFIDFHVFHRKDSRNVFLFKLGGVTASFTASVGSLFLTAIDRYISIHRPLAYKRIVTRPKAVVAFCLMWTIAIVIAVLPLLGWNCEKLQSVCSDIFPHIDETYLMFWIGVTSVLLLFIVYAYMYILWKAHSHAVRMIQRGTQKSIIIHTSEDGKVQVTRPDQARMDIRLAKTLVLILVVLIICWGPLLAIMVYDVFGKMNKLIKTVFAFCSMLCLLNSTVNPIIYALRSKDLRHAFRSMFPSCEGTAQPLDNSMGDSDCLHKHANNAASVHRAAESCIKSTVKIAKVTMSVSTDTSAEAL
T3 sequence (P34972 whole entry): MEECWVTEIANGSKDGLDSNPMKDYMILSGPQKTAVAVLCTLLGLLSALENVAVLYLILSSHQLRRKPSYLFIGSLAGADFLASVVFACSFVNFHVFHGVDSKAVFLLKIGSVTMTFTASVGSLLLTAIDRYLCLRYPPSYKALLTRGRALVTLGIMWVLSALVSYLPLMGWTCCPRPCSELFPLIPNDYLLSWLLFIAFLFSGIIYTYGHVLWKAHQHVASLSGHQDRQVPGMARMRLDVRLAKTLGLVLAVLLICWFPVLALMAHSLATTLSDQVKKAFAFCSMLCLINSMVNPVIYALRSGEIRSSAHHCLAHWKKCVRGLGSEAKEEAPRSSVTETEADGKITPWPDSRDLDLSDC
T8 sequence (P41143 whole entry): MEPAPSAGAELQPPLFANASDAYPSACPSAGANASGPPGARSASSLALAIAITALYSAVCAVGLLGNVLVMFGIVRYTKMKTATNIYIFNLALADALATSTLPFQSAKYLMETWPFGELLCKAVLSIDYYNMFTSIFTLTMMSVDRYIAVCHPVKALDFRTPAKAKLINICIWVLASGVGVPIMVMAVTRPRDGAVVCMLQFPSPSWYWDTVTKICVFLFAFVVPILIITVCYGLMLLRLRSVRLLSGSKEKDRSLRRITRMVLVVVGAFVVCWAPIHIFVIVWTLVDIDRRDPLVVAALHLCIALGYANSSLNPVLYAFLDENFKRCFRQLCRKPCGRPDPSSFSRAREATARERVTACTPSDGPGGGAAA
Sequence of CAAX prenyl protease 1 (P47154 whole entry): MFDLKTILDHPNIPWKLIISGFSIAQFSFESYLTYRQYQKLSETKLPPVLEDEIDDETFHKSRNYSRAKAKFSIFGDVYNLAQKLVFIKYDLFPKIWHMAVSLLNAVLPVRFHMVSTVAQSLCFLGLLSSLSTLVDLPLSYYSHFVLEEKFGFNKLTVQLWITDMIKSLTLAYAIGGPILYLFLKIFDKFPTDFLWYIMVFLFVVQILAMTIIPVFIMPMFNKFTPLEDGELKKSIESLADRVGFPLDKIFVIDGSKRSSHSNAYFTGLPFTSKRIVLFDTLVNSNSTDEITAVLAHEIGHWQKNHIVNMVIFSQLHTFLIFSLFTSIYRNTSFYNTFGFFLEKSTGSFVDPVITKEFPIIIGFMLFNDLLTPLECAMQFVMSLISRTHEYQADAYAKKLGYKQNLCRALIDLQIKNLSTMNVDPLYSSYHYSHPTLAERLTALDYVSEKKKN
T9 sequence (P35372 whole entry): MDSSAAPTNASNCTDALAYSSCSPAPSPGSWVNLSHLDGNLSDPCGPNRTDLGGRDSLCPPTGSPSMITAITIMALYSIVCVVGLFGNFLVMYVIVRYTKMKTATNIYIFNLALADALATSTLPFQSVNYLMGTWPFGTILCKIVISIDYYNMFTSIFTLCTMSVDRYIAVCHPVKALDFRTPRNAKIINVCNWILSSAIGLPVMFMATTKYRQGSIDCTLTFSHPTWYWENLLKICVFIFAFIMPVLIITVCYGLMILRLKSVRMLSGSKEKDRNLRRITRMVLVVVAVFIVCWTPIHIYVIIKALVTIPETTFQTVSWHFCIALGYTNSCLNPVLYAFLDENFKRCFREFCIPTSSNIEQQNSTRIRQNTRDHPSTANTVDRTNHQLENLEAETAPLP
Sequence of G-protein coupled receptor 55 (Q9Y2T6 whole entry): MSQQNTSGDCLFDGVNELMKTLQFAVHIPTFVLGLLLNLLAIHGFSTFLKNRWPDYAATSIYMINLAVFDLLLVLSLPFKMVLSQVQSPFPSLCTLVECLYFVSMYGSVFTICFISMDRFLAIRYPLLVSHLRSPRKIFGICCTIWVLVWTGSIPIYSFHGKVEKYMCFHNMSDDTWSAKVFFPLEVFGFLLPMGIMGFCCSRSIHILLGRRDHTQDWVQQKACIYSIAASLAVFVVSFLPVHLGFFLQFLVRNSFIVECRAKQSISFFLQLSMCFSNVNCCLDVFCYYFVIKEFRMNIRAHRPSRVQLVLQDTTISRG
Sequence of Cytochrome P450 3A4 (P08684 whole entry): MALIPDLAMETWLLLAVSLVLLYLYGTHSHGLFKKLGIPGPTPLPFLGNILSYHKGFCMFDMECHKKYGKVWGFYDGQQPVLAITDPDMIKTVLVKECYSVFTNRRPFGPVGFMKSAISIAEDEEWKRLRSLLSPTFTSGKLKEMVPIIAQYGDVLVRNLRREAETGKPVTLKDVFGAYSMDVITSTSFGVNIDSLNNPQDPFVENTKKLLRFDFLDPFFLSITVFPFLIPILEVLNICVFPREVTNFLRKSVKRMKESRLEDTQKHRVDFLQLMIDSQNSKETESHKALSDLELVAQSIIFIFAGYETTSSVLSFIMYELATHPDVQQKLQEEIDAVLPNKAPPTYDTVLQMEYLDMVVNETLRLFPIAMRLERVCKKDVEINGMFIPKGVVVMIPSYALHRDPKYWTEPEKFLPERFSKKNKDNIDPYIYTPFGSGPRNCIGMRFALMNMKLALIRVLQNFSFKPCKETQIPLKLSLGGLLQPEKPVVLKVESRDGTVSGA
Sequence of Cytochrome P450 2C9 (P11712 whole entry): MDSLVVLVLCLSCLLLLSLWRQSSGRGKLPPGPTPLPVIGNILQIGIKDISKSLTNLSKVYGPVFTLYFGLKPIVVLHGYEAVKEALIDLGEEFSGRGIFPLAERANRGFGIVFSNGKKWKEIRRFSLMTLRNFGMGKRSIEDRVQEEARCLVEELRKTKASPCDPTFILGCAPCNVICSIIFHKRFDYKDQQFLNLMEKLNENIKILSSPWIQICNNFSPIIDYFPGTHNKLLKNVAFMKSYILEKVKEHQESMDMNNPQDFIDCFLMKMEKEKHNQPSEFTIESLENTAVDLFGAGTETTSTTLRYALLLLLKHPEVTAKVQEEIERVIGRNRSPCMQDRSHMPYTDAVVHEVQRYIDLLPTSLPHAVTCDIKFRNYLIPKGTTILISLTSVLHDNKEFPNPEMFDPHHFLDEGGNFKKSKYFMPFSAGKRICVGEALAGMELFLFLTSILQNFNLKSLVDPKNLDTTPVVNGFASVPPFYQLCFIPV
Sequence of Runt-related transcription factor 1/Core-binding factor subunit beta (Q01196 whole entry, the tested form may be a part): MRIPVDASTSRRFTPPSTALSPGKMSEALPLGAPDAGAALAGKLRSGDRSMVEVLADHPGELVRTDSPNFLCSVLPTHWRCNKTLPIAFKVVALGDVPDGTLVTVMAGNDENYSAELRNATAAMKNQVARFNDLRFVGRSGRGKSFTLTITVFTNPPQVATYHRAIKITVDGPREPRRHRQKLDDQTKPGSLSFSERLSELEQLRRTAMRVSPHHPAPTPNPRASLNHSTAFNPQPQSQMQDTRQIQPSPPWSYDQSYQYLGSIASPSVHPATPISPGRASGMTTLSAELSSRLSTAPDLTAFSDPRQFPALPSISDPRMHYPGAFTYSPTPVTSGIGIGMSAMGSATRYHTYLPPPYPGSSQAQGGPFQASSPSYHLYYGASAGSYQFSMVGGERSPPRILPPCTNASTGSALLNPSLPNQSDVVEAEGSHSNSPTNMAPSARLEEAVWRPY
Sequence of Runt-related transcription factor 1/Core-binding factor subunit beta (Q13951 whole entry, the tested form may be a part): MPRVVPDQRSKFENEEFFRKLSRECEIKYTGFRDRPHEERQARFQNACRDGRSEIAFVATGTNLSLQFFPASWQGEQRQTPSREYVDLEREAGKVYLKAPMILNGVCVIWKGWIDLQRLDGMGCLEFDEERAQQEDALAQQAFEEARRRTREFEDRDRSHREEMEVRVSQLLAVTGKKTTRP

NC(=O)CSC1=Nc2ccccc2C2=NC(c3ccccc3)C(=O)N12 (stereo unspecified)
AC50 [1]: 5.41 µM (active)
AC50 [2]: 4.61 µM (active)

Cc1nc(N2CCN(C(=O)COc3ccccc3C)CC2)c2c3c(sc2n1)CCCC3
EC50 [3]: > 32 µM (inactive)
EC50 [4]: > 32 µM (inactive)
IC50 [5]: 2.22 µM (active)
IC50 [6]: 13.1 µM (inactive)
IC50 [7]: > 32 µM (inactive)
EC50 [8]: > 32 µM (inactive)
IC50 [9]: > 13.1 µM (inactive)

Cc1ccc2oc(=O)c3cnn(CC(=O)N4CCCCCC4)c3c2c1
EC50 [10]: 34.1 µM (inactive)
EC50 [11]: 21.7 µM (inactive)

CC(=O)N1CCN(C2c3cccc4cccc(c34)C2NS(=O)(=O)c2ccccc2)CC1 (stereo unspecified)
EC50 [10]: 48.9 µM (inactive)
EC50 [11]: 29.4 µM (inactive)

CC(CCc1ccccc1)NCC(O)c1ccc(O)c(C(N)=O)c1 (stereo unspecified) [LABETALOL HYDROCHLORIDE]
AC50 [12]: 15.8 µM (inconclusive)
AC50 [1]: 7.7 µM (active)
AC50 [2]: 15.3 µM (active)

Cc1noc(NS(=O)(=O)c2ccc(NC(=O)c3cc(-c4ccccc4Cl)nc4ccccc34)cc2)c1C
EC50 [3]: > 32 µM (inactive)
EC50 [4]: > 32 µM (inactive)
IC50 [5]: 18.8 µM (inactive)
IC50 [6]: 4.63 µM (active)
IC50 [7]: > 32 µM (inactive)
EC50 [8]: > 32 µM (inactive)
IC50 [9]: > 32 µM (inactive)

O=S(=O)(Nc1ccc(-c2nc3cccnc3s2)cc1)c1ccccc1F
IC50 [13]: > 50 µM (inactive)

CCCCC1(C)OC(=O)C(=Cc2ccc(N(C)C)cc2)C(=O)O1 (stereo unspecified)
AC50 [14]: 28.2 µM (inconclusive)
AC50 [15]: inconclusive
AC50 [16]: 14.1 µM (inconclusive)
AC50 [17]: 1 µM (inconclusive)

C[N+]1([C@H](CO)Cc2c[nH]c3ccccc23)Cc2ccccc2C1.O=S(=O)([O-])c1ccccc1
AC50 [16]: inactive

Cc1ccc(CSc2nnc(-c3ccccn3)n2Cc2cccs2)cc1
EC50 [18]: > 32 µM (inactive)
IC50 [19]: > 32 µM (inactive)
IC50 [20]: > 32 µM (inactive)
EC50 [21]: 3.59 µM (active)
IC50 [22]: > 32 µM (inactive)
EC50 [23]: 2.38 µM (active)
EC50 [24]: > 32 µM (inactive)
